Measured values published in patent US11745181B2, “Devices and methods for bioassay” (Unchained Labs, priority 2017, dated 2023).

Assays:
[1] = system: zebrafish embryos Tg(fli1:EGFP); assay: Heart rate measurement of zebrafish embryos/larvae in the μZMount fluidic device; assay type: in vivo; details: 0.1 μM, 1 μM, or 5 μM for 48 or 96 hours; compared with published literature
Procedure: Each different drug treatment was replenished every 24 hours, effectively dosing the zebrafish at 24, 48, 72, and 96 hours post initial drug treatment. The drug was added in a manner similar to replenishing the media. At 4 dpf, each larvae was moved into its respective second bioassay region by adding 10 μl of media to the sample chamber and aspirated out quickly from the first outlet. The yolk of the zebrafish at this age has depleted enough to allow the fish to flow into the second bioassay region.
Heart rate was measured for no less than five embryos per treatment at 48 hours post fertilization (hpf) and 96 hpf. Of the heart rates measured, three of them were recorded using video image capturing techniques for future evaluation. The heart rates were measured by visually inspecting the heart beat and counting the number of beats in 15 seconds and then multiplying by 4.

[2] = system: zebrafish larvae Tg(fli1:EGFP); assay: High-resolution fluorescence-microscopy imaging of vessel sprouting and morphology in zebrafish larvae; assay type: in vivo; details: 0.1 μM, 1 μM, or 5 μM, replenished every 24 hours
Source text: In this example, green fluorescent zebrafish embryos were loaded into the fluidic chambers of μZMount, a non-limiting exemplary fluidic device with the structure provided in FIGS. 1-2 herein and dimensions that were within 5% of the target dimensions as provided herein with reference to the illustrative embodiment provided in FIGS. 1-2, and that includes a plurality of fluidic chambers having the features and within 5% of the target dimensions provided herein for the illustrative embodiment of FIGS. 2A-2B. […] These zebrafish were Tg(fli1:EGFP) and expressed enhanced GFP under the control of the fli1 promoter such that the entire vasculature fluoresces. The zebrafish embryos and larvae that developed therefrom, were visualized with high-resolution fluorescent microscopy.
Each different drug treatment was replenished every 24 hours, effectively dosing the zebrafish at 24, 48, 72, and 96 hours post initial drug treatment. The drug was added in a manner similar to replenishing the media. […]
Embryos were imaged at various time points while within the fluidic device, up to 5 dpf, using high-resolution fluorescence-microscopy. […]
Drug-mediated inhibition of intersegmental and subintestinal vessels sprouting was recorded using high-resolution fluorescence-microscopy.

SMILES: Cc1cc(C)c(/C=C2\C(=O)Nc3ccccc32)[nH]1 [SU-5416]
- heart rates [1]: within the normal range
- dorsalization [2]: concentration dependent dorsalization
- inhibition of intersegmental and subintestinal vessels sprouting (angiogenic development) ([2]; fluorescence microscopy): suppression of angiogenic development similar to published work
